Assays:
[1] = system: IFN-γ-producing CD8+ T cells; test: IFN-γ-producing CD8+ T cells after β-galactosidase stimulation of spleen cells (Ad-LacZ immunization); format: in vivo; settings: Balb/c mice; Ad-LacZ + 0.125 μg αGalCer intranasal; spleen cells stimulated with 2.5 μg/mL β-galactosidase for 5 days
Description: (§1) Balb/c mice were immunized with 10^6 pfu of replication-deficient live adenovirus harboring beta-galactosidase gene (Ad-LacZ) (Viromed, Korea) alone or together with 0.125 μg of αGalCer by the intranasal administration, two times at two-week intervals. One week after the final immunization, the nasal wash, the lung wash and serum were separated, by the same manner as described in Example 1, to measure β-galactosidase-specific antibody response. In addition, to measure CTL activity, spleen cells were stimulated by 2.5 μg/mL of β-galactosidase for 5 days and IFN-γ-producing CD8+ T cells were examined by intracellular cytokine staining according to the procedure as described in Example <4-2>.

[2] = system: immune cells from spleen and CLN; test: Immune cell proliferation, [3H]-thymidine incorporation of spleen and CLN cells cultured with inactivated PR8; format: in vivo; settings: Balb/c mice; inactivated PR8 + αGalCer intranasal; cells cultured with inactivated PR8 for 3 days, [3H]-thymidine 18 hrs
Description: To examine the role of αGalCer as an adjuvant of a killed virus, influenza virus A/PR/8/34 (PR8), which was inactivated with formalin, was used as an antigen to examine the anti-virus immune response. Balb/c mice were immunized with indicated amounts (1 μg, 10 μg) of inactivated PR8 alone or together with αGalCer by the intranasal administration twice at two-week intervals. Two weeks after the final immunization, the mice were sacrificed and following experiments were performed.
Single cells separated from the spleen and CLN of the sacrificed mice were cultured with inactivated PR8 for 3 days and [^3H]-thymidine was added and further incubated for 18 hrs. As cells were being proliferated, the level of incorporated [^3H]-thymidine was measured by LSC.

[3] = system: PR8 HA-specific antibody responses; set-up: species or system Balb/c mice; settings: mouse, in vivo
[4] = system: OT1 cells (OVA specific CD8+ T cells); test: Intracellular IL-2 and IFN-γ of OT1 cells after OVA257-264 peptide stimulation; format: in vivo, mouse; settings: OVA + 2.0 μg αGalCer intranasal vs OVA alone; 5 μM OVA257-264 peptide for 6 hours
Description: To confirm whether the activated T-cells were differentiated into fully functional CTL, 2×10^6/ml of cells were further stimulated with 5 μM of OVA257-264 peptide for 6 hours, by the same manner as described in Example 4, and then intracellular IL-2 and IFN-γ levels were measured by using APC-conjugated IL-2 (Clone JES6-5H4, Biolegend Inc., USA) and APC-conjugated IFN-γ mAb (Clone XMG1.2 Biolegend Inc., USA).

[5] = system: OVA257-264 pulsed CFSE^high spleen cells; test: In vivo CTL assay: specific lysis of OVA257-264 pulsed CFSE-high cells by FACS, C57BL/6 mice; settings: all αGalCer dose groups + OVA intranasal, vs vehicle alone or OVA alone, dose-dependent
Description: Spleen cells were separated from naive C57BL/6 mice, which were pulsed with 1 μM of OVA257-264 at 37° C. for 90 minutes. The pulsed cells were labeled with 20 μM of CFSE (Molecular Probes, USA) at 37° C. for 15 minutes, resulting in OVA257-264 pulsed CFSE^high cells. In the meantime, the unpulsed cells were labeled with 2 μM of CFSE (Molecular Probes, USA) at 37° C. for 15 minutes, resulting in the OVA257-264 unpulsed CFSE^low cells. The equal numbers of peptide-pulsed CFSE^high cells and unpulsed CFSE^low cells were mixed, which were intravenously injected to mice at the number of 2×10^7 cells one week after the final immunization. 24 hours later, specific lysis of peptide-pulsed CFSE^high cell was investigated by using FACS in spleen, mesenteric lymph node (MLN) and cervical lymph node (CLN).

[6] = mouse treated with 2200 μg/Kg of αGalCer; cited from earlier work
[7] = system: OVA-specific antibody responses; test: OVA-specific antibody responses after intranasal co-administration of OVA and αGalCer, Balb/c mice; format: in vivo
Description: To investigate whether αGalCer can be used as a strong adjuvant for a nasal vaccine in Balb/c mice, different amounts of αGalCer (0.15, 0.5, 2.0 μg) and 100 μg of OVA were intranasally administered to Balb/c mice by the same manner as described in Example 1, followed by measurement of OVA-specific IgG, OVA-specific IgG1 and IgG2a in serum and OVA-specific IgA responses in the nasal wash and the lung wash.

[8] = rodents and apes; cited from earlier work
[9] = system: influenza virus A/PR/8/34; set-up: species or system Balb/c mice; settings: mouse, in vivo
[10] = system: IFN-γ-producing CD8+ T cells; test: IFN-γ-producing CD8+ T cells by intracellular cytokine staining, Balb/c mice, OVA; format: in vivo; settings: splenocytes cultured 4 days with 500 μg/ml OVA, with the increase of αGalCer concentration
Description: OVA dose not include an epitope peptide binding to a MHC class I molecule in Balb/c mouse. So, to investigate cytotoxic activity induced by αGalCer adjuvant in the Balb/c mouse, the numbers of IFN-γ-producing CD8+ T cells were measured (FIG. 11). Particularly, the cells (2×10^6 cells/ml) were cultured for 4 days with 500 μg/ml of OVA, to which 1 μl/ml of GolgiPug™ (BD Pharmigen, USA) was added 6 hours before termination of the culture. Then, staining was performed by using FITC-conjugated CD3 mAb (Clone 145-2C11, Biolegend Inc, USA), PE-conjugated CD8 mAb (Clone 53-6.7, Biolegend Inc, USA) and APC-conjugated IFN-γ mAb (Clone XMG1.2, Biolegend Inc, USA). Intracellular staining was performed with BD Cytofix/Cytoperm Plus™ (BD Pharmigen, USA) according to the manufacturer's instruction, and the stained cells were analyzed with FACSCalibur (BD Bioscience, USA) and CellQuest software (BD Bioscience, USA).

[11] = system: β-galactosidase-specific antibody response; test: β-galactosidase-specific antibody response after intranasal Ad-LacZ with αGalCer; format: in vivo; settings: Balb/c mice; 10^6 pfu Ad-LacZ + 0.125 μg αGalCer intranasal, twice at two-week intervals; vs vehicle alone or Ad-LacZ alone
Description: as §1

[12] = dose escalation study, 50-4800 μg/m^2; cited from earlier work
[13] = αGalCer (0.15, 0.5, 2.0 μg) + 100 μg OVA intranasal, vs vehicle alone or OVA alone

SMILES: CCCCCCCCCCCCCCCCCCCCCCCCCC(=O)N[C@@H](CO[C@H]1O[C@H](CO)[C@H](O)[C@H](O)[C@H]1O)[C@H](O)[C@H](O)CCCCCCCCCCCCCC [αGalCer, alpha-galactosylceramide]
- numbers of IFN-γ-producing CD8+ T cells [1]: significant increase
- proliferation of immune cells from spleen and CLN [2]: significantly increased
- PR8 HA-specific IgG antibody in serum [3]: high level
- levels of OT1 cells secreting IL-2 and IFN-γ [4]: higher
- CTL cytotoxicity (specific lysis) in spleen, MLN and CLN [5]: dose-dependent lytic activity
- CTL cytotoxicity (specific lysis) in spleen, MLN and CLN ([5]; listed as α-GalCer): higher cytotoxicity
- side effects [6]: no side effects
- IgG antibody level in serum, comparison of αGalCer doses ([7]; 0.5 μg of αGalCer intranasally coadministered with OVA): highest level of IgG antibody
- OVA-specific IgA responses in the nasal wash and the lung wash [7, 13]: higher OVA-specific IgA responses
- OVA-specific IgG response in serum [7, 13]: higher OVA-specific IgG response
- OVA-specific IgG1 and IgG2a titers ([7]; αGalCer + OVA intranasal, serum): increases
- toxicity [8]: seems not to induce toxicity
- weight loss recovery after virus infection [9]: rapid rate of weight loss recovery
- numbers of IFN-γ-producing CD8+ T cells, relation to αGalCer concentration [10]: decreased
- β-galactosidase-specific IgG antibody in serum [11]: higher levels
- β-galactosidase-specific S-IgA antibody in the nasal wash and the lung wash [11]: higher levels
- dose-limiting toxicity [12]: does not cause dose-limiting toxicity

From US20080317769A1, “Vaccine Composition Comprising Alpha-Galactosylceramide as an Adjuvant For Intranasal Administration” (priority 2005, published 2008)
